Test results as given in paper PMC4303209, “A novel phosphatidylinositol 3-kinase (PI3K) inhibitor directs a potent FOXO-dependent, p53-independent cell cycle arrest phenotype characterized by the differential induction of a subset of FOXO-regulated genes” (Breast Cancer Research : BCR, 2014).

Test system: MCF-7 breast cancer cells
Test: Microarray gene expression analysis (Agilent whole human genome 4 x 44K; compound vs DMSO, LIMMA log2 fold change)
Format: cell-based
Conditions: Apoptosis genes

Cn1ncc2c(N3CCOCC3)nc(-c3cccc(O)c3)nc21 [ETP-45658]
CTNNA1 log2FC (Gene 1495): 0.398
CTNNB1 log2FC (Gene 1499): 0.236
CTSB log2FC (Gene 1508): -0.231
CTSH log2FC (Gene 1512): -0.192
CTSL log2FC (Gene 1514): 0.446
CX3CR1 log2FC (Gene 1524): 0.181
CYLD log2FC (Gene 1540): 0.499
DAB2 log2FC (Gene 1601): -0.232
DAD1 log2FC (Gene 1603): -0.542
DAP log2FC (Gene 1611): -0.178
DAPK1 log2FC (Gene 1612): 0.238
DAPK3 log2FC (Gene 1613): -0.132
DBH log2FC (Gene 1621): -0.059
DCC log2FC (Gene 1630): 0.044
GADD45A log2FC (Gene 1647): -0.416
DDIT3 log2FC (Gene 1649): 2.364
DDX3X log2FC (Gene 1654): -1.156
DDX5 log2FC (Gene 1655): -0.656
DFFA log2FC (Gene 1676): -0.316
DFNA5 log2FC (Gene 1687): 0.156
DHCR24 log2FC (Gene 1718): -0.643
DHODH log2FC (Gene 1723): -0.210
NQO1 log2FC (Gene 1728): 0.303
DLX1 log2FC (Gene 1745): -0.429
DNASE1 log2FC (Gene 1773): 0.250
DNASE1L3 log2FC (Gene 1776): -0.141
DNASE2 log2FC (Gene 1777): 0.536
DOCK1 log2FC (Gene 1793): 0.462
DPEP1 log2FC (Gene 1800): -0.068
ATN1 log2FC (Gene 1822): -0.501
DSG1 log2FC (Gene 1828): -0.456
DSG2 log2FC (Gene 1829): 0.346
DSG3 log2FC (Gene 1830): -0.092
TSC22D3 log2FC (Gene 1831): 0.689
DSP log2FC (Gene 1832): 0.613
DUSP1 log2FC (Gene 1843): -0.931
DUSP2 log2FC (Gene 1844): -2.124
DUSP6 log2FC (Gene 1848): -2.175
E2F1 log2FC (Gene 1869): -0.356
E2F2 log2FC (Gene 1870): -0.581
ECT2 log2FC (Gene 1894): 1.058
EDN1 log2FC (Gene 1906): 0.169
EDNRA log2FC (Gene 1909): -0.061
EDNRB log2FC (Gene 1910): -0.075
EEF1A2 log2FC (Gene 1917): -0.382
EFNA5 log2FC (Gene 1946): -0.086
EGFR log2FC (Gene 1956): 0.311
EGR1 log2FC (Gene 1958): -3.897
EGR2 log2FC (Gene 1959): -0.340
EPHA2 log2FC (Gene 1969): -2.195
EIF5A log2FC (Gene 1984): -0.137
ENDOG log2FC (Gene 2021): -0.357
EP300 log2FC (Gene 2033): -0.215
EPHA7 log2FC (Gene 2045): -0.083
CLN8 log2FC (Gene 2055): -0.161
EPO log2FC (Gene 2056): -0.146
ERBB3 log2FC (Gene 2065): 0.557
ERBB4 log2FC (Gene 2066): 0.141
ERCC2 log2FC (Gene 2068): -0.566
ERCC3 log2FC (Gene 2071): -0.084
ERCC5 log2FC (Gene 2073): 0.896
ERCC6 log2FC (Gene 2074): 0.369
ERN1 log2FC (Gene 2081): -0.168
ESR1 log2FC (Gene 2099): -0.121
ESR2 log2FC (Gene 2100): -0.067
ETS1 log2FC (Gene 2113): -0.590
EYA2 log2FC (Gene 2139): -0.248
F2R log2FC (Gene 2149): 0.260
F3 log2FC (Gene 2152): -0.164
PTK2B log2FC (Gene 2185): 0.101
FCER1G log2FC (Gene 2207): -0.662
FGD1 log2FC (Gene 2245): -0.405
FGF4 log2FC (Gene 2249): -0.171
FGF8 log2FC (Gene 2253): -0.131
FGF10 log2FC (Gene 2255): 0.033
FGFR1 log2FC (Gene 2260): -0.387
FGFR3 log2FC (Gene 2261): -0.382
FGFR2 log2FC (Gene 2263): 1.543
FHIT log2FC (Gene 2272): -0.370
FHL2 log2FC (Gene 2274): -0.173
FOXC1 log2FC (Gene 2296): -0.876
FOXC2 log2FC (Gene 2303): -0.613
FLT3 log2FC (Gene 2322): 0.165
FLT4 log2FC (Gene 2324): -0.341
FNTA log2FC (Gene 2339): 1.051
FXN log2FC (Gene 2395): -0.579
FRZB log2FC (Gene 2487): 0.110
FYN log2FC (Gene 2534): -0.127
G6PD log2FC (Gene 2539): -0.236
GABRA5 log2FC (Gene 2558): 0.036
GABRB2 log2FC (Gene 2561): -0.066
GABRB3 log2FC (Gene 2562): 0.054
GAS1 log2FC (Gene 2619): 0.711
GAS2 log2FC (Gene 2620): 0.183
GATA1 log2FC (Gene 2623): -0.041
GATA3 log2FC (Gene 2625): -0.140
GDNF log2FC (Gene 2668): 0.348
B4GALT1 log2FC (Gene 2683): 0.129
GJA1 log2FC (Gene 2697): -0.390
GCLC log2FC (Gene 2729): 1.033
GLI3 log2FC (Gene 2737): 0.306
GLO1 log2FC (Gene 2739): 0.300
GML log2FC (Gene 2765): -0.233
GNB1 log2FC (Gene 2782): -0.075
GNGT1 log2FC (Gene 2792): 0.035
GNRH1 log2FC (Gene 2796): 0.243
SFN log2FC (Gene 2810): -1.182
GPLD1 log2FC (Gene 2822): -0.136
CXCR3 log2FC (Gene 2833): -0.730
GRK5 log2FC (Gene 2869): 0.091
MKNK2 log2FC (Gene 2872): -0.750
GPX1 log2FC (Gene 2876): 0.224
GRID2 log2FC (Gene 2895): -0.054
GRIK2 log2FC (Gene 2898): 0.090
GRIK5 log2FC (Gene 2901): -0.286
GRIN1 log2FC (Gene 2902): -0.518
GRIN2A log2FC (Gene 2903): -0.037
NR3C1 log2FC (Gene 2908): 1.303
GRM4 log2FC (Gene 2914): -0.041
PDIA3 log2FC (Gene 2923): -0.131
GSK3A log2FC (Gene 2931): -0.246
GSK3B log2FC (Gene 2932): -0.607
GSN log2FC (Gene 2934): -0.206
GSTP1 log2FC (Gene 2950): 0.120
MSH6 log2FC (Gene 2956): 0.235
GZMH log2FC (Gene 2999): -0.228
GZMA log2FC (Gene 3001): -0.081
GZMB log2FC (Gene 3002): -0.203
GZMM log2FC (Gene 3004): -0.523
H1F0 log2FC (Gene 3005): 0.826
HCK log2FC (Gene 3055): -0.046
HDAC1 log2FC (Gene 3065): -0.487
HDAC2 log2FC (Gene 3066): 0.164
HELLS log2FC (Gene 3070): 0.388
NCKAP1L log2FC (Gene 3071): 0.079
HGF log2FC (Gene 3082): -0.369
NRG1 log2FC (Gene 3084): -1.147
HIC1 log2FC (Gene 3090): -0.118
HIF1A log2FC (Gene 3091): 0.141
HIP1 log2FC (Gene 3092): -0.264
HINT1 log2FC (Gene 3094): 0.229
HK2 log2FC (Gene 3099): -1.193
HMGB1 log2FC (Gene 3146): 0.513
HMGB2 log2FC (Gene 3148): 1.232
HMGCR log2FC (Gene 3156): 0.305
HMOX1 log2FC (Gene 3162): 1.167
NR4A1 log2FC (Gene 3164): -0.616
HOXA5 log2FC (Gene 3202): 0.402
HOXA13 log2FC (Gene 3209): 0.081
HRAS log2FC (Gene 3265): -0.664
HRG log2FC (Gene 3273): 0.066
PRMT2 log2FC (Gene 3275): 0.361
HSPA1A log2FC (Gene 3303): -2.764
HSPA5 log2FC (Gene 3309): -0.358
HSPB1 log2FC (Gene 3315): -0.158
HSP90AA1 log2FC (Gene 3320): 1.066
HSP90AB1 log2FC (Gene 3326): -0.153
